Results: patent US20110052723A1, “USE OF COMPOUNDS BINDING TO THE SIGMA RECEPTOR LIGANDS FOR THE TREATMENT OF NEUROPATHIC PAIN DEVELOPING AS A CONSEQUENCE OF CHEMOTHERAPY” (priority 2008, published 2011)

Tests used:
CD-1 mice [1] = experiment: Paclitaxel-induced cold allodynia, acetone test
Experimental: Experiments were performed in CD-1 mice (Charles River, U.S.A.) with at least n=10/experimental group. […] Control animals received the same volume of solvent (a mixture of ethanol and cremophor EL)
Mechanical allodynia was evaluated with an electronically driven Von Frey filament (Dynamic Plantar Aesthesiometer, Ugo Basile, Varese, Italy) as previously described (Nieto et al., 2008), and cold allodynia was evaluated using the acetone drop method (Polomano et al., 2001; Smith et al., 2004).
In addition, in order to study the influence of the sigma 1 receptor in this process the difference in development of allodynia was determined using wild-type mice and sigma 1-receptor knock-out-mice.
Therefore, the cumulative dose was 10 mg/kg per mouse.
BD-1063 was dissolved in normal saline just before administration and applied at doses of 8, 16, 32 or 64 mg/kg subcutaneously.
The response of the animals to the different nociceptive stimuli was tested subsequently during 2-4 weeks, depending on the test (see below), without any additional treatment. Each animal was tested only in one nociceptive model. […] Each animal received only one dose of BD-1063 and was tested in only one nociceptive model.
Procedure for assessment of cold allodynia. Cold allodynia was tested as previously described by Smith et al., 2004, by gently touching the plantar skin of the hind paws with an acetone bubble formed with a syringe connected to a thin polyethylene tube. The mice were housed and habituated for 30 min in transparent plastic boxes (7×7×13 cm) with a floor made of wire mesh. After the adaptation period, acetone was applied alternately three times to each paw at intervals of 30 s, and the duration and frequency of licking or biting were recorded. A small mirror was placed behind the chambers to allow clear observation of the paws. The time spent licking or biting the paw was recorded by a stopwatch and represented as the cumulative time of licking/biting in the six measurements. Since licking persisting more than 10 s in the experiments was very unusual, a cut-off time of 10 s was used for each trial.
Therefore, the day 10, after the habituation period to the apparatus, baseline latencies were recorded, 30 min later BD-1063 or saline was injected s.c. and paw withdrawal latencies were assessed again 30, 60, 90, 120 and 180 minutes after the injection.

patients = settings: paclitaxel 135 mg/m^2; cited from earlier work
CD-1 mice [2] = experiment: Paclitaxel-induced mechanical allodynia, Von Frey test; format: in vivo
Experimental: Procedure for assessment of mechanical allodynia. To assess mechanical allodynia, paw withdrawal thresholds were measured using a Dynamic Plantar Aesthesiometer (Ugo Basile, Italy). The electronic Von Frey device employs a single nonflexible filament which applies a progressively increasing force (from 0 to 10 g) against the plantar surface of the hind paw over a 20 s period. […] The day of the experiment, mice were placed individually in test compartments (9×9×14 cm) with a wire mesh bottom and allowed to acclimatize to them for 2 h. After habituation, each mouse was tested three times alternately in each hind paw.

sigma receptor = settings: Sigma 1 and Sigma 2; cited from earlier work
[3] = sigma-1-receptor knockout animals, paclitaxel 2 mg/kg i.p. once daily during 5 days
[4] = wild-type animals, paclitaxel 2 mg/kg i.p. once daily during 5 days

In the case of CC(=O)O[C@H]1C(=O)[C@@]2(C)[C@H]([C@H](OC(=O)c3ccccc3)[C@]3(O)C[C@H](OC(=O)[C@H](O)[C@@H](NC(=O)c4ccccc4)c4ccccc4)C(C)=C1C3(C)C)[C@]1(OC(C)=O)CO[C@@H]1C[C@@H]2O [paclitaxel, Paclitaxel], the “time of maximal paclitaxel-induced cold allodynia after the first injection” value (CD-1 mice [1]; control mice, paclitaxel 2 mg/kg i.p. once daily during 5 days) was 10 to 14 days, the “animals with significantly increased time licking/biting the stimulated paw (paclitaxel-responder animals)” value (CD-1 mice [1]; paclitaxel 2 mg/kg i.p. once daily during 5 days) was 67% and the paclitaxel-induced cold allodynia (CD-1 mice [1]; [3]) was “not significantly expressed”. For the same compound, the “time of maximal paclitaxel-induced cold allodynia after the first injection” value (CD-1 mice [1]; [4]) was 10 days, the “patients progressing to dose-limiting neurotoxicity” value (patients) was 0% and the “mechanical allodynia (threshold force for paw withdrawal) on day 10” value (CD-1 mice [2]; paclitaxel 2 mg/kg i.p. during 5 days, vs pre-treatment and vehicle) was “induced mechanical allodynia”. The paclitaxel-induced mechanical allodynia (CD-1 mice [2]; [3]) was “not significantly expressed”, the “animals showing a reduction of the mechanical threshold” value (CD-1 mice [2]; treated with paclitaxel) was 96% and the “time of maximal paclitaxel-induced mechanical allodynia after the first injection” value (CD-1 mice [2]; [4]) was 10 days.
In the case of CN1CCN(CCc2ccc(Cl)c(Cl)c2)CC1 [BD-1063], the “development of paclitaxel-induced cold allodynia (duration of hind paw licking/biting)” value (CD-1 mice [1]; BD-1063 32 mg/kg 30 min before each paclitaxel injection (2 mg/kg i.p.), days 1 to 5, tested to day 24) was “inhibited the development of cold allodynia”, the “expression of paclitaxel-induced cold allodynia (duration of hind paw licking/biting)” value (CD-1 mice [1]; single s.c. injection on day 10, 8, 16, 32 or 64 mg/kg, dose-dependent, significantly different from saline) was “inhibited the expression of paclitaxel-induced cold allodynia” and the “expression of paclitaxel-induced mechanical allodynia (threshold force for paw withdrawal)” value (CD-1 mice [2]; single s.c. injection on day 10, 32 or 64 mg/kg, dose-dependent, significantly different from saline) was “inhibited the expression of paclitaxel-induced mechanical allodynia”.
In the case of CC(C)=CCN1CCC2(C)c3cc(O)ccc3CC1C2C (stereo not shown) [pentazocine], the “affinity of the sigma receptors to analgesics” value (sigma receptor) is given as “very high affinity”.
